The CheMixHub viscosity set
Several values for one entry are separate records, joined by “and”; a condition that tells them apart may be missing. Equal entries are not always repeated.

Experiment: xn = mol fraction of the nth substance listed

ClC(Cl)C(Cl)Cl + C=C(C)C(=O)OC
303.15 K, 101 kPa
Conditions | viscosity [mPa·s]
x2 = 0.0942 | 1.422
x2 = 0.1967 | 1.317
x2 = 0.2785 | 1.235
x2 = 0.4978 | 0.9971
x2 = 0.598 | 0.8879
x2 = 0.7131 | 0.7662
x2 = 0.905 | 0.5902

ClC(Cl)C(Cl)Cl + CNc1ccccc1
303 K, 101.33 kPa
Conditions | viscosity [mPa·s]
x2 = 0.1012 | 1.439
x2 = 0.1991 | 1.49
x2 = 0.3016 | 1.541
x2 = 0.4007 | 1.59
x2 = 0.5004 | 1.633
x2 = 0.6007 | 1.66
x2 = 0.7017 | 1.686
x2 = 0.7992 | 1.707
x2 = 0.9013 | 1.73

COCCOCCOC + ClC(Cl)Cl
298.15 K, 101.33 kPa
Conditions | viscosity [mPa·s]
x1 = 0.0986 | 0.727
x1 = 0.2039 | 0.946
x1 = 0.2993 | 1.028
x1 = 0.3966 | 1.082
x1 = 0.4825 | 1.094
x1 = 0.5247 | 1.093
x1 = 0.5864 | 1.08
x1 = 0.6365 | 1.072
x1 = 0.7006 | 1.054
x1 = 0.7976 | 1.033
x1 = 0.8985 | 1.011
x1 = 0.9325 | 1.008

Oc1ccccc1 + C[N+](C)(C)CCO.[Cl-]
viscosity
Conditions | 101 kPa | 101.33 kPa
293.15 K, x2 = 0.2 | – | 61.78 mPa·s
293.15 K, x2 = 0.25 | – | 72.04 mPa·s
293.15 K, x2 = 0.333 | 137.7 mPa·s | –
298.15 K, x1 = 0.7 | – | 122.5 mPa·s
298.15 K, x1 = 0.8 | – | 56.11 mPa·s and 39.28 mPa·s and 30.65 mPa·s
298.15 K, x1 = 0.9 | – | 26.18 mPa·s
298.15 K, x2 = 0.333 | 99.81 mPa·s | –
303.15 K, x2 = 0.2 | 36.55 mPa·s | 37.73 mPa·s
303.15 K, x2 = 0.25 | 41.2 mPa·s | 43.1 mPa·s
303.15 K, x2 = 0.333 | 75.03 mPa·s and 76.44 mPa·s | –
308.15 K, x2 = 0.333 | 57.85 mPa·s | –
313.15 K, x2 = 0.2 | 23.57 mPa·s | 24.63 mPa·s
313.15 K, x2 = 0.25 | 26.84 mPa·s | 27.84 mPa·s
313.15 K, x2 = 0.333 | 46.41 mPa·s and 45.29 mPa·s | –
318.15 K, x2 = 0.333 | 35.93 mPa·s | –
323.15 K, x2 = 0.2 | 16.21 mPa·s | 17.07 mPa·s
323.15 K, x2 = 0.25 | 18.62 mPa·s | 19.11 mPa·s
323.15 K, x2 = 0.333 | 30.68 mPa·s and 28.71 mPa·s | –

CNc1ccccc1 + O=[N+]([O-])c1ccccc1
Conditions | viscosity [mPa·s]
303.15 K, 101.3 kPa, x1 = 0.5 | 1.52

OC(C(F)(F)F)C(F)(F)F + O
viscosity [mPa·s], 101 kPa
Conditions | 298.15 K | 303.15 K | 313.15 K | 323.15 K
x1 = 0.002095 | 0.921 | 0.824 | 0.671 | 0.559
x1 = 0.004456 | 0.959 | 0.857 | 0.691 | 0.575
x1 = 0.008636 | 1.027 | 0.911 | 0.73 | 0.602
x1 = 0.01141 | 1.076 | 0.951 | 0.756 | 0.621
x1 = 0.0205 | 1.22 | 1.069 | 0.84 | 0.682
x1 = 0.0264 | 1.31 | 1.147 | 0.897 | 0.727
x1 = 0.04493 | 1.583 | 1.383 | 1.075 | 0.869
x1 = 0.06872 | 1.854 | 1.606 | 1.246 | 0.997
x1 = 0.09912 | 2.077 | 1.797 | 1.377 | 1.094
x1 = 0.1716 | 2.251 | 1.93 | 1.463 | 1.147
x1 = 0.2057 | 2.246 | 1.934 | 1.459 | 1.142
x1 = 0.3052 | 2.102 | 1.83 | 1.4 | 1.086
x1 = 0.4208 | 1.879 | 1.633 | 1.262 | 1.004
x1 = 0.5004 | 1.76 | 1.541 | 1.202 | 0.964
x1 = 0.6306 | 1.636 | 1.433 | 1.119 | 0.907
x1 = 0.6778 | 1.606 | 1.405 | 1.102 | 0.883
x1 = 0.7422 | 1.585 | 1.39 | 1.077 | 0.864
x1 = 0.8064 | 1.575 | 1.374 | 1.049 | 0.849
x1 = 0.8456 | 1.575 | 1.372 | 1.045 | 0.833
